Laboratory results from PMC5622171 (Nature Communications, 2017).

How the values were obtained:
Assay in all cases: KINOMEscan kinase profiling
Type in all cases: binding
VEGFR2 = biological target: T1, VEGFR2 (Homo sapiens, UniProt P35968); details: read-out: %Inhibition by 10 μM SPA70
T1 construct: purchased DiscoverX (Ambit Biosciences) KINOMEscan
Method in brief: (§1)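 KINOMEscan profiling followed a published protocol. Kinases whose inhibition exceeded a set cut-off were then tested in a dilution series beginning at 30 µM.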

WEE2 = biological target: T2, WEE2 (Homo sapiens, UniProt P0C1S8); details: read-out: %Inhibition by 10 μM SPA70
T2 construct: purchased DiscoverX (Ambit Biosciences) KINOMEscan
Method in brief: as §1

ADCK3 = biological target: T3, ADCK3 (Homo sapiens, UniProt Q8NI60); details: read-out: %Inhibition by 10 μM SPA70
T3 construct: purchased DiscoverX (Ambit Biosciences) KINOMEscan
Method in brief: as §1

PIM1 = biological target: T4, PIM1 (Homo sapiens, UniProt P11309); details: read-out: %Inhibition by 10 μM SPA70
T4 construct: purchased DiscoverX (Ambit Biosciences) KINOMEscan
Method in brief: as §1

HIPK2 = biological target: T5, HIPK2 (Homo sapiens, UniProt Q9H2X6); details: read-out: %Inhibition by 10 μM SPA70
T5 construct: purchased DiscoverX (Ambit Biosciences) KINOMEscan
Method in brief: as §1

MEK6 = biological target: T6, MEK6 (Homo sapiens, UniProt P52564); details: read-out: %Inhibition by 10 μM SPA70
T6 construct: purchased DiscoverX (Ambit Biosciences) KINOMEscan
Method in brief: as §1

PRKG1 = biological target: T7, PRKG1 (Homo sapiens, UniProt Q13976); details: read-out: %Inhibition by 10 μM SPA70
T7 construct: purchased DiscoverX (Ambit Biosciences) KINOMEscan
Method in brief: as §1

FGFR2 = biological target: T8, FGFR2 (Homo sapiens, UniProt P21802); details: read-out: %Inhibition by 10 μM SPA70
T8 construct: purchased DiscoverX (Ambit Biosciences) KINOMEscan
Method in brief: as §1

RET = biological target: T9, RET (Homo sapiens, UniProt P07949); details: read-out: %Inhibition by 10 μM SPA70
T9 construct: purchased DiscoverX (Ambit Biosciences) KINOMEscan
Method in brief: as §1

CSF1R = biological target: T10, CSF1R (Homo sapiens, UniProt P07333)
T10 construct: purchased Ambit Biosciences, now part of DiscoveryX
Method in brief: as §1

[1] = biological target: T11, RSK1(Kin.Dom.2-C-terminal) (Homo sapiens, UniProt Q15418); details: read-out: %Inhibition by 10 μM SPA70
T11 construct: RSK1(Kin.Dom.2-C-terminal); purchased DiscoverX (Ambit Biosciences) KINOMEscan
Method in brief: as §1

BMPR2 = biological target: T12, BMPR2 (Homo sapiens, UniProt Q13873)
T12 construct: purchased DiscoverX (Ambit Biosciences) KINOMEscan
Method in brief: as §1

ERBB2 = biological target: T13, ERBB2 (Homo sapiens, UniProt P04626); details: read-out: %Inhibition by 10 μM SPA70
T13 construct: purchased DiscoverX (Ambit Biosciences) KINOMEscan
Method in brief: as §1

CAMKK2 = biological target: T14, CAMKK2 (Homo sapiens, UniProt Q96RR4); details: read-out: %Inhibition by 10 μM SPA70
T14 construct: purchased DiscoverX (Ambit Biosciences) KINOMEscan
Method in brief: as §1

ZAP70 = biological target: T15, ZAP70 (Homo sapiens, UniProt P43403); details: read-out: %Inhibition by 10 μM SPA70
T15 construct: purchased DiscoverX (Ambit Biosciences) KINOMEscan
Method in brief: as §1

RIPK1 = biological target: T16, RIPK1 (Homo sapiens, UniProt Q13546); details: read-out: %Inhibition by 10 μM SPA70
T16 construct: purchased DiscoverX (Ambit Biosciences) KINOMEscan
Method in brief: as §1

PDGFRB = biological target: T17, PDGFRB (Homo sapiens, UniProt P09619); details: read-out: %Inhibition by 10 μM SPA70
T17 construct: purchased DiscoverX (Ambit Biosciences) KINOMEscan
Method in brief: as §1

GSK3A = biological target: T18, GSK3A (Homo sapiens, UniProt P49840)
T18 construct: purchased DiscoverX (Ambit Biosciences) KINOMEscan
Method in brief: as §1

EPHB2 = biological target: T19, EPHB2 (Homo sapiens, UniProt P29323)
T19 construct: purchased DiscoverX (Ambit Biosciences) KINOMEscan
Method in brief: as §1

PAK1 = biological target: T20, PAK1 (Homo sapiens, UniProt Q13153); details: read-out: %Inhibition by 10 μM SPA70
T20 construct: purchased DiscoverX (Ambit Biosciences) KINOMEscan
Method in brief: as §1

TSSK1B = biological target: T21, TSSK1B (Homo sapiens, UniProt Q9BXA7); details: read-out: %Inhibition by 10 μM SPA70
T21 construct: purchased DiscoverX (Ambit Biosciences) KINOMEscan
Method in brief: as §1

TAOK1 = biological target: T22, TAOK1 (Homo sapiens, UniProt Q7L7X3); details: read-out: %Inhibition by 10 μM SPA70
T22 construct: purchased DiscoverX (Ambit Biosciences) KINOMEscan
Method in brief: as §1

LOK = biological target: T23, LOK (Homo sapiens, UniProt O94804)
T23 construct: purchased DiscoverX (Ambit Biosciences) KINOMEscan
Method in brief: as §1

RIOK1 = biological target: T24, RIOK1 (Homo sapiens, UniProt Q9BRS2); details: read-out: %Inhibition by 10 μM SPA70
T24 construct: purchased DiscoverX (Ambit Biosciences) KINOMEscan
Method in brief: as §1

MAP3K2 = biological target: T25, MAP3K2 (Homo sapiens, UniProt Q9Y2U5); details: read-out: %Inhibition by 10 μM SPA70
T25 construct: purchased DiscoverX (Ambit Biosciences) KINOMEscan
Method in brief: as §1

STK35 = biological target: T26, STK35 (Homo sapiens, UniProt Q8TDR2); details: read-out: %Inhibition by 10 μM SPA70
T26 construct: purchased DiscoverX (Ambit Biosciences) KINOMEscan
Method in brief: as §1

EPHB4 = biological target: T27, EPHB4 (Homo sapiens, UniProt P54760); details: read-out: %Inhibition by 10 μM SPA70
T27 construct: purchased DiscoverX (Ambit Biosciences) KINOMEscan
Method in brief: as §1

CDK3 = biological target: T28, CDK3 (Homo sapiens, UniProt Q00526)
T28 construct: purchased DiscoverX (Ambit Biosciences) KINOMEscan
Method in brief: as §1

MLK3 = biological target: T29, MLK3 (Homo sapiens, UniProt Q16584)
T29 construct: purchased DiscoverX (Ambit Biosciences) KINOMEscan
Method in brief: as §1

BLK = biological target: T30, BLK (Homo sapiens, UniProt P51451); details: read-out: %Inhibition by 10 μM SPA70
T30 construct: purchased DiscoverX (Ambit Biosciences) KINOMEscan
Method in brief: as §1

ROS1 = biological target: T31, ROS1 (Homo sapiens, UniProt P08922); details: read-out: %Inhibition by 10 μM SPA70
T31 construct: purchased DiscoverX (Ambit Biosciences) KINOMEscan
Method in brief: as §1

CDC2L1 = biological target: T32, CDC2L1 (Homo sapiens, UniProt P21127); details: read-out: %Inhibition by 10 μM SPA70
T32 construct: purchased DiscoverX (Ambit Biosciences) KINOMEscan
Method in brief: as §1

DDR2 = biological target: T33, DDR2 (Homo sapiens, UniProt Q16832); details: read-out: %Inhibition by 10 μM SPA70
T33 construct: purchased DiscoverX (Ambit Biosciences) KINOMEscan
Method in brief: as §1

RIOK2 = biological target: T34, RIOK2 (Homo sapiens, UniProt Q9BVS4); details: read-out: %Inhibition by 10 μM SPA70
T34 construct: purchased DiscoverX (Ambit Biosciences) KINOMEscan
Method in brief: as §1

BIKE = biological target: T35, BIKE (Homo sapiens, UniProt Q9NSY1); details: read-out: %Inhibition by 10 μM SPA70
T35 construct: purchased DiscoverX (Ambit Biosciences) KINOMEscan
Method in brief: as §1

CDK11 = biological target: T36, CDK11 (Homo sapiens, UniProt Q9BWU1)
T36 construct: purchased DiscoverX (Ambit Biosciences) KINOMEscan
Method in brief: as §1

MST1R = biological target: T37, MST1R (Homo sapiens, UniProt Q04912); details: read-out: %Inhibition by 10 μM SPA70
T37 construct: purchased DiscoverX (Ambit Biosciences) KINOMEscan
Method in brief: as §1

EPHA4 = biological target: T38, EPHA4 (Homo sapiens, UniProt P54764); details: read-out: %Inhibition by 10 μM SPA70
T38 construct: purchased DiscoverX (Ambit Biosciences) KINOMEscan
Method in brief: as §1

FGFR1 = biological target: T39, FGFR1 (Homo sapiens, UniProt P11362); details: read-out: %Inhibition by 10 μM SPA70
T39 construct: purchased DiscoverX (Ambit Biosciences) KINOMEscan
Method in brief: as §1

PRKR = biological target: T40, PRKR (Homo sapiens, UniProt P19525)
T40 construct: purchased DiscoverX (Ambit Biosciences) KINOMEscan
Method in brief: as §1

BRSK1 = biological target: T41, BRSK1 (Homo sapiens, UniProt Q8TDC3); details: read-out: %Inhibition by 10 μM SPA70
T41 construct: purchased DiscoverX (Ambit Biosciences) KINOMEscan
Method in brief: as §1

[2] = read-out: %Inhibition by 10 μM SPA70

T18 sequence (P49840 whole entry): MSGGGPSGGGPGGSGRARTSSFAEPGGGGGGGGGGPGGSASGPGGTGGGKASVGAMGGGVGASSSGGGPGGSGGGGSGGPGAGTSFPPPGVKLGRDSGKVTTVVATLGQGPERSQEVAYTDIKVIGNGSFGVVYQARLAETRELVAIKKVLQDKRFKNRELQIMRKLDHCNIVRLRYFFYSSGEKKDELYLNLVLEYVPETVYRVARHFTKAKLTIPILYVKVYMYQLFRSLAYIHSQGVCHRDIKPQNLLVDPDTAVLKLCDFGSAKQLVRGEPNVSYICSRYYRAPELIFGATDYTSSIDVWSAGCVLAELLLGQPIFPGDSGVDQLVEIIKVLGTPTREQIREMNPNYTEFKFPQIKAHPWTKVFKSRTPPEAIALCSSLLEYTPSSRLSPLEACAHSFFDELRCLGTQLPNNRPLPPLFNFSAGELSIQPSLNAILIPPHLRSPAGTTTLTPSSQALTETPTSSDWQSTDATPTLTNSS
T10 sequence (P07333 20-972): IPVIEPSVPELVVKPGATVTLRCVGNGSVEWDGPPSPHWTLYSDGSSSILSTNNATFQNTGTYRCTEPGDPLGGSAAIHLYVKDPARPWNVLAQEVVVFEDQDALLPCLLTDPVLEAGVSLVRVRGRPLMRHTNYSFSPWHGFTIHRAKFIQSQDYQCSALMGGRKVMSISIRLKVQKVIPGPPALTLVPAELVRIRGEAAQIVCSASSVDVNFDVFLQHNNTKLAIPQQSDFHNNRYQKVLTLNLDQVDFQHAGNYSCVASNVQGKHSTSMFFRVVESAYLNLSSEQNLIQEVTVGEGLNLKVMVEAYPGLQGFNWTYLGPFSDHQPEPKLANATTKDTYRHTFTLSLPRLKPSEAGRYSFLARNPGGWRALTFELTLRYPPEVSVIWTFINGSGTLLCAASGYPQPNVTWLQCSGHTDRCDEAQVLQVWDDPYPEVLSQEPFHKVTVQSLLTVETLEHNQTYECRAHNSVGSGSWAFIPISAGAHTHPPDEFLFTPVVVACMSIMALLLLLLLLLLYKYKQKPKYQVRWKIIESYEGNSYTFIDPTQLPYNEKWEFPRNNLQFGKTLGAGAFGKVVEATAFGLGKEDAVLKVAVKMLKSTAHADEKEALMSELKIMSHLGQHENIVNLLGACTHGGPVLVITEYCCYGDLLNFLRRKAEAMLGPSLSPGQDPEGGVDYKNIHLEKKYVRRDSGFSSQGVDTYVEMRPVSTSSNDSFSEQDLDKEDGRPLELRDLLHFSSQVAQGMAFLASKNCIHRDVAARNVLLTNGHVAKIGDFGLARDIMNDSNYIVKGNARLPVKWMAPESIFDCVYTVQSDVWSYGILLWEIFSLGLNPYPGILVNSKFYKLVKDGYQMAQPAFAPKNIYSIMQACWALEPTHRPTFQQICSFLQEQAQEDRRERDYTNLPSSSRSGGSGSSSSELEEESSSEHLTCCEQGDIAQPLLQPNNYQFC
T28 sequence (Q00526 whole entry): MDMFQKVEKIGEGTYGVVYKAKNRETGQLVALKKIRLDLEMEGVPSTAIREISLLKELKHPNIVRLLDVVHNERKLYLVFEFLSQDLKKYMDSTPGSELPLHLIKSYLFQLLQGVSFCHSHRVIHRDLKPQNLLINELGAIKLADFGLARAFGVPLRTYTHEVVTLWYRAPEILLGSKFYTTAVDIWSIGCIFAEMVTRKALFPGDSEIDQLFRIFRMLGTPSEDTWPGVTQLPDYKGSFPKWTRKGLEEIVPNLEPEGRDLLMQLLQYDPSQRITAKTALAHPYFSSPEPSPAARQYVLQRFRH
T24 sequence (Q9BRS2 whole entry): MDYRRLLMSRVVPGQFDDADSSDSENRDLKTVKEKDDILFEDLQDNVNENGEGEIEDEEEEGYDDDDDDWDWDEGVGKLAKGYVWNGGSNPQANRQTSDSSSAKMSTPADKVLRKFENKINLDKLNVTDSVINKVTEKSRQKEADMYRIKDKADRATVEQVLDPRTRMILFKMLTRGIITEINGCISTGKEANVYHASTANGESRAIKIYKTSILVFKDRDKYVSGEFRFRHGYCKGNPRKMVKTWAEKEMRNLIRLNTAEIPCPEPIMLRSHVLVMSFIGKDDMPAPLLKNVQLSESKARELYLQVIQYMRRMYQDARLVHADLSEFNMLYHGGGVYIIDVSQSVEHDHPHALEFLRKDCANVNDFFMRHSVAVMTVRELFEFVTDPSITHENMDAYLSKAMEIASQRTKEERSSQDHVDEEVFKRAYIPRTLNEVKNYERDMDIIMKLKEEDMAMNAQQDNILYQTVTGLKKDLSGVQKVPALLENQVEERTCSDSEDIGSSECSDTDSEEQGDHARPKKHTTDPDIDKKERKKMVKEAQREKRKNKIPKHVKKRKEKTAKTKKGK
T29 sequence (Q16584 whole entry): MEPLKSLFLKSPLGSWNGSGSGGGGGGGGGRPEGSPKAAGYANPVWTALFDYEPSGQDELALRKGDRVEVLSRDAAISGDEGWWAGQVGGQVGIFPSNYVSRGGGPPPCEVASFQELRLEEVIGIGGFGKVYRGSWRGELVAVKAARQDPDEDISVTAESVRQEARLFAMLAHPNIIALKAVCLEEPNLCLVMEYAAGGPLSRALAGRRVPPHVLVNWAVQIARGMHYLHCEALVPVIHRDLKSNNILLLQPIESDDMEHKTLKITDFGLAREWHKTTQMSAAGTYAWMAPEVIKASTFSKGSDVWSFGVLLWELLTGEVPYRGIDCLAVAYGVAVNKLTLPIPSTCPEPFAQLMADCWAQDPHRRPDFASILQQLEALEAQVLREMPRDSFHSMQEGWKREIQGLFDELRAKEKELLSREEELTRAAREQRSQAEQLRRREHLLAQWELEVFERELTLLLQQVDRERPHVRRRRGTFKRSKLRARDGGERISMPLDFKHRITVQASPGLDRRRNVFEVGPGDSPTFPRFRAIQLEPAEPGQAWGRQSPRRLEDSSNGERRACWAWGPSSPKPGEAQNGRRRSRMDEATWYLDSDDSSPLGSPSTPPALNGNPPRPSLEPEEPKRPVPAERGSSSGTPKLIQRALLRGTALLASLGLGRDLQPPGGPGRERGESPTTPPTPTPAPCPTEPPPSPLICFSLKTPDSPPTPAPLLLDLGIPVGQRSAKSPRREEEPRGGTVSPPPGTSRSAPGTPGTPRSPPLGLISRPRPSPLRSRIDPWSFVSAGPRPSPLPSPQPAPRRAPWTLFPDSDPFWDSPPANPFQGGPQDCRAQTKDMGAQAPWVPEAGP
T16 sequence (Q13546 whole entry): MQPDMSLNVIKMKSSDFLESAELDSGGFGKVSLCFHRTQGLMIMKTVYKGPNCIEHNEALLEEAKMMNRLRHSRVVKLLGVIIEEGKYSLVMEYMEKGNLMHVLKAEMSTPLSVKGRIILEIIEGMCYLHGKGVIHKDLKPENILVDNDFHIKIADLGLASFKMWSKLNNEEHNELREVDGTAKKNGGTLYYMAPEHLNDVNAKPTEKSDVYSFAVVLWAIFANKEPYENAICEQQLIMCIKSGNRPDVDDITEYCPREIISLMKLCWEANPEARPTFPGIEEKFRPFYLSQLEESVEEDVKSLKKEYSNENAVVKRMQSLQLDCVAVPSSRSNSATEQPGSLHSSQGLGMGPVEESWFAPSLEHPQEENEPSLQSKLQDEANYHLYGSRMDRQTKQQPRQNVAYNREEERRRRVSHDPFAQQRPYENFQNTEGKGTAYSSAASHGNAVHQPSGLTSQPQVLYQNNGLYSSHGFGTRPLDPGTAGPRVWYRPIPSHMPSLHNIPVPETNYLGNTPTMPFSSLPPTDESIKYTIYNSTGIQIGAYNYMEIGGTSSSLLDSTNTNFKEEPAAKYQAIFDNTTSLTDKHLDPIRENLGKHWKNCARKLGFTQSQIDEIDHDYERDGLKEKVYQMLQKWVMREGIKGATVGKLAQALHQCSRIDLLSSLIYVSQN
T36 sequence (Q9BWU1 whole entry): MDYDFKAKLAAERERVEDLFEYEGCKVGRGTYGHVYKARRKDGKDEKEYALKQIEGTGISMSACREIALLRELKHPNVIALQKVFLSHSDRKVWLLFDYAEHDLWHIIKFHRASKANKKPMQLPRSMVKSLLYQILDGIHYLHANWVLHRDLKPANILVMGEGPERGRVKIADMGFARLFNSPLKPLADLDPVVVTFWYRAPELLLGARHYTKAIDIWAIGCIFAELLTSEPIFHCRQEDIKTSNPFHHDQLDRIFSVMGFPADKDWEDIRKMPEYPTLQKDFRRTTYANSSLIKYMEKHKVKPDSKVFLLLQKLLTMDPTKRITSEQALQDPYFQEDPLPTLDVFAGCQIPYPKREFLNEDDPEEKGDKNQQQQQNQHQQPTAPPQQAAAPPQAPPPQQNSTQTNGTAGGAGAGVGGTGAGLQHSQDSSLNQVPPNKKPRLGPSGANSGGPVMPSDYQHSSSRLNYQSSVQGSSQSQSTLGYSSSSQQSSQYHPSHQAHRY
T30 sequence (P51451 whole entry): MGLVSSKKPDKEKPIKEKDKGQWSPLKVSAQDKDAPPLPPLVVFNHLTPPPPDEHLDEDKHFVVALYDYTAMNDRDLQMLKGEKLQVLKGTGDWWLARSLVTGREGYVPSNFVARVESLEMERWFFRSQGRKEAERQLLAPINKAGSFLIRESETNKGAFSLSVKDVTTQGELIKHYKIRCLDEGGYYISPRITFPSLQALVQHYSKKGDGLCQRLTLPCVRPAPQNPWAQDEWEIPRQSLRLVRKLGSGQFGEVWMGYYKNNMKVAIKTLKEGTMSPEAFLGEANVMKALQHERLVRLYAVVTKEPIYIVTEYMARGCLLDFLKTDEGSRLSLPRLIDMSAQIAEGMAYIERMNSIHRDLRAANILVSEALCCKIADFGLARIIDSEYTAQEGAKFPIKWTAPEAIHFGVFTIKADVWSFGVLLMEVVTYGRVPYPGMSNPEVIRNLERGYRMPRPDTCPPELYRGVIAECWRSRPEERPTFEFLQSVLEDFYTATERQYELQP

COc1ccc(OC)c(-n2nnc(S(=O)(=O)c3ccc(C(C)(C)C)cc3)c2C)c1 [SPA70]
inhibition at 10 µM (VEGFR2): 0% | inhibition at 10 µM (WEE2): 1% | inhibition at 10 µM (ADCK3): 0% | inhibition at 10 µM (PIM1): 0% | inhibition at 10 µM (HIPK2): 36% | inhibition at 10 µM (MEK6): 0% | inhibition at 10 µM (PRKG1): 0% | inhibition at 10 µM (FGFR2): 0% | inhibition at 10 µM (RET): 0% | Kd (CSF1R; 11-point 3-fold serial dilutions starting from 30 µM): 4 µM | inhibition at 10 µM (CSF1R; [2]): 63% | inhibition at 10 µM [1]: 12% | %Inhibition by 10 μM SPA70 (BMPR2): 10% | inhibition at 10 µM (ERBB2): 5% | inhibition at 10 µM (CAMKK2): 0% | inhibition at 10 µM (ZAP70): 22% | inhibition at 10 µM (RIPK1): 0% | inhibition at 10 µM (PDGFRB): 46% | %Inhibition by 10 μM SPA70 (GSK3A): not inhibited | inhibition at 10 µM (GSK3A; [2]): 0% | %Inhibition by 10 μM SPA70 (EPHB2): 0% | inhibition at 10 µM (PAK1): 0% | inhibition at 10 µM (TSSK1B): 0% | inhibition at 10 µM (TAOK1): 15% | %Inhibition by 10 μM SPA70 (LOK): 0% | inhibition at 10 µM (RIOK1): 47% | inhibition at 10 µM (MAP3K2): 15% | inhibition at 10 µM (STK35): 0% | inhibition at 10 µM (EPHB4): 0% | %Inhibition by 10 μM SPA70 (CDK3): 3% | %Inhibition by 10 μM SPA70 (MLK3): 18% | inhibition at 10 µM (BLK): 11% | inhibition at 10 µM (ROS1): 5% | inhibition at 10 µM (CDC2L1): 0% | inhibition at 10 µM (DDR2): 0% | inhibition at 10 µM (RIOK2): 0% | inhibition at 10 µM (BIKE): 35% | %Inhibition by 10 μM SPA70 (CDK11): 0% | inhibition at 10 µM (MST1R): 3% | inhibition at 10 µM (EPHA4): 0% | inhibition at 10 µM (FGFR1): 0% | %Inhibition by 10 μM SPA70 (PRKR): 26% | inhibition at 10 µM (BRSK1): 8%
